From patent US20170121646A1, “Improved Stabilization of Non-Protease Enzyme” (Novozymes A/S, priority 2014, published 2017)

Columns and labels:
Type in all cases: biochemical
[1] = tested on: Lipase (Lipex 100L); test: Storage stability in Detergent C with Savinase, residual lipase activity after 4 weeks at 30° C.; conditions: increase from dose 1 to dose 2
Method: (§1) Further the following detergents with protease inhibitors were prepared. The detergents were placed in closed glasses at 30° C. Residual activity of lipase and protease was measured (by comparison to a reference stored at −18° C.) after 4 weeks, using standard enzyme analytical methods (protease measured by hydrolysis of N,N-dimethylcasein at 40° C., pH 8.3 and lipase measured by hydrolysis of p-nitrophenyl valerate at 40° C., pH 7.7). Z-GA-NHCH(CH2C6H4OH)CH(OH)SO3Na was added in a concentration of 8.1 mg/L (dose 1) and 16.1 mg/L (dose 2). 4-FPBA was added in a concentration of 80 mg/L (dose 1) and 160 mg/L (dose 2).

[2] = molecular target: T1, Savinase (Lederbergia lenta, UniProt P29600); test: Storage stability in Detergent C, residual protease activity after 4 weeks at 30° C.; conditions: Detergent C with Savinase; for %-points per dose (residual protease activity): increase from dose 1 to dose 2
T1 sequence (P29600 1-269): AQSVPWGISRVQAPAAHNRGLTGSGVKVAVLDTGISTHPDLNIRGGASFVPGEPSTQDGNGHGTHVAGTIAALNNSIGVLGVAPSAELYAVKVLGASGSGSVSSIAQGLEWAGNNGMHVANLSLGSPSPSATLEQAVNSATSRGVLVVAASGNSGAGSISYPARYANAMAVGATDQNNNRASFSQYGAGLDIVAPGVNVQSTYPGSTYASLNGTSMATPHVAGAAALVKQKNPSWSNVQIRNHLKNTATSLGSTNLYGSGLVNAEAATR
Method: as §1

[3] = molecular target: T1, Savinase; test: Storage stability in Detergent M, residual protease activity after 1 week at 40° C.; conditions: for Residual activity at dose 1 / Residual activity at dose 2 / Inhibitor dose 1: 1 week 40° C. vs −18° C. reference; for Inhibitor dose 1: dose 1 = concentration C found by interpolation; for ((residual activity at dose 2) − (residual activity at dose 1))/((residual activity at dose 1) − (residual activity at no inhibitor)): criterion that defines dose 1; for Inhibitor dose 2: dose 2 = 2×dose 1
Excerpt: An inhibitor concentration C is defined, so that when the inhibitor concentration is doubled from a concentration of C to a concentration of 2C (i.e., 2C=2×C), the residual protease activity increases (“residual protease activity at 2C”−“residual protease activity at C”) by 25% of the residual protease activity increase from no inhibitor to C (“residual protease activity at C”−“residual activity at no inhibitor”). “No inhibitor” means that the concentration of inhibitor is zero.
The test system to determine “dose 1” (C) and “dose 2” (2C) is described in Example 1. A model detergent system is used (detergent A) and protease, lipase, and different concentrations of protease inhibitor are added (detergent M). Residual protease activity is determined by comparing activity after storage for 1 week at 40° C. with 1 week at −18° C. The data are used to prepare a dose response curve which is used to identify the inhibitor concentration C.
Various peptide aldehydes were produced by a custom peptide synthesis company, all with a purity>80%. The peptide aldehydes were dissolved in DMSO to a concentration of 10 mg/mL before use.
Further the following detergents with protease inhibitors were prepared. The detergents were placed in closed glasses at 40° C. Residual activity of protease was measured (by comparison to a reference stored at −18° C.) after 1 week, using standard enzyme analytical methods (protease measured by hydrolysis of N,N-dimethylcasein at 40° C., pH 8.3). The inhibitor levels tested relative to protease were in the range 0.5-500 molar ratio (inhibitor:protease). The data points were connected and the inhibitor dose 1 and dose 2 were determined by interpolation so that ((residual protease activity at dose 2)−(residual protease activity at dose 1))/((residual protease activity at dose 1)−(residual protease activity at no inhibitor))=0.25; and dose 2=2×dose 1.

[4] = tested on: Lipase (Lipex 100L); test: Storage stability in Detergent C with Liquanase, residual lipase activity after 4 weeks at 30° C.; conditions: increase from dose 1 to dose 2
Method: as §1
Target sequence in this assay (O59952 23-291 T253R/N255R): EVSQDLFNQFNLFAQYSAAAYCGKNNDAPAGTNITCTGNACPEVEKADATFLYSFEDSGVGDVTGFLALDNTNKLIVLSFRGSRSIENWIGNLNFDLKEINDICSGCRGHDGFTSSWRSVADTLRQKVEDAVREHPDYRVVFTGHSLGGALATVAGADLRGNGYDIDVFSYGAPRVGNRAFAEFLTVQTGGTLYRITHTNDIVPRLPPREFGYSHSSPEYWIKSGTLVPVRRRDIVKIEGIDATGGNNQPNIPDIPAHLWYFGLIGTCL

[5] = tested on: Lipase (Lipex 100L); test: Storage stability in Detergent B (with Savinase), residual lipase activity after 4 weeks at 30° C.; conditions: increase from dose 1 (12.9 mg/L) to dose 2 (26.0 mg/L)
Method: as §1, with “12.9” for “8.1”, “26.0” for “16.1”, “2).” for “2). 4-FPBA was added in a concentration of 80 mg/L (dose 1) and 160 mg/L (dose 2).”
Target sequence in this assay (O59952 23-291 T253R/N255R): as above

[6] = tested on: Liquanase; test: Storage stability in Detergent C, residual protease activity after 4 weeks at 30° C.; conditions: Detergent C with Liquanase; increase from dose 1 to dose 2
Method: as §1

[7] = molecular target: T2, Protease (Savinase 16L) (Lederbergia lenta, UniProt P29600); test: Storage stability in Detergent B, residual protease activity after 4 weeks at 30° C.; conditions: increase from dose 1 (12.9 mg/L) to dose 2 (26.0 mg/L)
T2 sequence (P29600 1-269): T1 sequence (P29600 1-269)
Method: as §1, with “12.9” for “8.1”, “26.0” for “16.1”, “2).” for “2). 4-FPBA was added in a concentration of 80 mg/L (dose 1) and 160 mg/L (dose 2).”

Compound | %-points per dose (residual lipase activity) [1] [%] | remaining activity at 80 µg/mL ([2]; 4 weeks 30° C. vs −18° C. reference, dose 1: Z-GA-NHCH(CH2C6H4OH)CH(OH)SO3Na 8.1 mg/L, 4-FPBA 80 mg/L, read-out: Inhibitor dose 1 (residual protease activity)) [%] | remaining activity at 160 µg/mL ([2]; 4 weeks 30° C. vs −18° C. reference, dose 2: Z-GA-NHCH(CH2C6H4OH)CH(OH)SO3Na 16.1 mg/L, 4-FPBA 160 mg/L, read-out: Inhibitor dose 2 (residual protease activity)) [%] | %-points per dose (residual protease activity) [2] [%] | Residual activity at dose 1 [3] [%] | Residual activity at dose 2 [3] [%] | Inhibitor dose 1 [3] [mg/mL] | ((residual activity at dose 2) − (residual activity at dose 1))/((residual activity at dose 1) − (residual activity at no inhibitor)) [3] [%] | Inhibitor dose 2 [3] [mg/mL] | %-points per dose (residual lipase activity) [4] [%] | %-points per dose (residual lipase activity) [5] [%] | %-points per dose (residual protease activity) [6] [%] | %-points per dose (residual protease activity) [7] [%]
O=Cc1ccc(B(O)O)cc1 [4-FPBA, 4-formyl-phenyl-boronic acid] | 16 | 98 | 98 | 0 | 63 | 75 | 91 | 25 | 182 | – | – | – | –
Cbz-Gly-Ala-Leu-H [Z-GAL-H] | – | – | – | – | 50 | 60 | 5.7 | 25 | 11.5 | – | – | – | –
Cbz-Gly-Ala-Phe-H [Z-GAF-H] | – | – | – | – | 75 | 90 | 18.7 | 25 | 37.5 | – | – | – | –
Z-GA-NHCH(CH2C6H4OH)CH(OH)SO3Na | 21 | – | – | 9 | – | – | 8.1 | 25 | 16.1 | 25 | 30 | 0 | 10
